Results reported in PMC10363774 (RSC Advances, 2023).

Legend:
IL-6 = assay: In vitro immunomodulatory assay, IL-6; type: cell-based, human; details: HCT-116 cells, 24 h, at the IC50 concentration
[1] = test system: HCT-116 cells (colon cancer); assay: MTT anti-proliferative assay, HCT-116; type: cell-based; details: Homo sapiens, HCT-116, 48 h, read-out: In vitro cytotoxicity IC50 HCT 116
[2] = test system: MCF-7 cells (breast cancer); assay: MTT anti-proliferative assay, MCF-7; type: cell-based; details: Homo sapiens, MCF7, 48 h, read-out: In vitro cytotoxicity IC50 MCF-7

| Compound | Pro-inflammatory factors inhibition IL-6 (IL-6) | IC50 [1] | IC50 [2] |
| --- | --- | --- | --- |
| C[C@@H]1C[C@H]2[C@@H]3CCC4=CC(=O)C=C[C@]4(C)[C@@]3(F)[C@@H](O)C[C@]2(C)[C@@]1(O)C(=O)CO [Dexamethasone] | 93.15 pg per mL % |  |  |
| CNC(=O)c1cc(Oc2ccc(NC(=O)Nc3ccc(Cl)c(C(F)(F)F)c3)cc2)ccn1 [Sorafenib] |  | 8.96 ± 0.05 µM | 11.83 ± 0.07 µM |
